A short description of series [1]: Rat pharmacokinetics, intravenous injection 1 mg/kg. Type of series: in vivo, Sprague Dawley rats. The settings on record: for AUC0-7 h / AUC0-7 h of mono-methyl metabolite: n=2, plasma, mean; for AUC0-7 h: dosed parent compound; for AUC0-7 h of mono-methyl metabolite: IV 1 mg/kg of the parent (Example 1 or Comparator A), metabolite measured. The protocol: (§1) The plasma was separated, frozen and later analyzed. […] In the case of Comparator A the plasma was analyzed for Comparator A and its mono-methyl metabolite, Comparator B. The quantitation of each metabolite and its parent compound was done by LC-MS/MS with standard curves using authentic standards of each compound. The analysis allowed the characterization of the time-concentration profile and the calculation of pharmacokinetic (PK) parameters via non-compartmental methods.

Series [2] is described as follows: Rat pharmacokinetics, oral gavage 5 mg/kg. The settings on record: for Cmax / Tmax / AUC0-7 h: PO 5 mg/kg; for Cmax / Tmax: n=3, dosed parent compound; for Cmax / Tmax / AUC0-7 h / AUC0-7 h of mono-methyl metabolite / Tmax of mono-methyl metabolite: mean; for AUC0-7 h / AUC0-7 h of mono-methyl metabolite: n=3, plasma; for AUC0-7 h: dosed parent compound; for AUC0-7 h of mono-methyl metabolite: PO 5 mg/kg of the parent (Example 1 or Comparator A), metabolite measured; for Tmax of mono-methyl metabolite: PO 5 mg/kg of the parent, n=3, metabolite measured. Type of series: in vivo, Sprague Dawley rats. The protocol: as §1

The next series concerns the target CDK1/cyclin B (Homo sapiens, UniProt P06493). Kind of series: CDK1/cyclin B enzymatic activity assay (IMAP-FP). Type of series: biochemical. The settings on record: 100 nM Tamra Histone-H1 peptide, 20 μM ATP, 120 min. The protocol:
CDK1/Cyclin B Enzymatic Activity Assay A 384-well microtiter IMAP-FP™ (Molecular Devices Trade Mark Technology) endpoint assay was used for CDK1/cyclin B kinase activity measurements. The same assay was used for IC50 determination of small molecule inhibitors. […] No. R8139), 10 μL substrate mixture of Tamra Histone-H1 peptide (Molecular Devices, Cat. No. R7384) and ATP (Amersham Pharmacia, Cat. No. 27-2056-01) in the 1× Reaction Buffer with 1 mM DTT freshly added. […] All reactions were run at room temperature in black 384-well flat-bottom Costar plates (Corning, Cat. […] No. R8139).

For another series, the target named is T1, CDK4/cyclin D1 (Homo sapiens, UniProt P11802).
T1 construct: His6 (N); made in house; host or cells: Sf21 insect cells (baculovirus)
T1 sequence (P11802 whole entry): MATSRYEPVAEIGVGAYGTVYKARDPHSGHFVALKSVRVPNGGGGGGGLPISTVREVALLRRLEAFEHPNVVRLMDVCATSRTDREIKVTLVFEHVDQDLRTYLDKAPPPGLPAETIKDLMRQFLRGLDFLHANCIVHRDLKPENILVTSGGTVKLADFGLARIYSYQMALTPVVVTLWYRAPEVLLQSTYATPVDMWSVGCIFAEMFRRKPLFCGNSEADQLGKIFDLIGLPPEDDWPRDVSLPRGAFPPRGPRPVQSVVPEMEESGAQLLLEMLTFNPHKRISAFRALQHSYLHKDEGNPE
T1 sequence (P24385 whole entry partner): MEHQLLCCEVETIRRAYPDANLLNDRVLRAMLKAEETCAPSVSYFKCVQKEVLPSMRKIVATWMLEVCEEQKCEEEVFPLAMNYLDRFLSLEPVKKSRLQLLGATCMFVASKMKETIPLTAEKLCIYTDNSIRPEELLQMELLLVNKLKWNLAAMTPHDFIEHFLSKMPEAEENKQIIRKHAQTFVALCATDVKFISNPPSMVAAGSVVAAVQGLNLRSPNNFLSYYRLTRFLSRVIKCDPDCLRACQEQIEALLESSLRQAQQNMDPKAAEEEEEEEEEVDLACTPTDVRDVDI
Briefly: CDK4/cyclin D1 enzymatic activity assay (Lance TR-FRET). Format: biochemical. The settings on record: 0.3 nM CDK4/cyclin D1, 175 nM pRb152, 3 μM ATP, 60 min. How it is done:
The same assay was used for IC50 determination of small molecule inhibitors. In general, the kinase reactions were carried out in 30 μL volumes in the reaction solution containing the following: 2 uL compound (in 20% DMSO), 18 uL CDK4/cyclin D1 in Assay Buffer (50 mM HEPES, pH 7.5, 5 mM MgCl2, 2 mM MnCl2, 1 mM DTT, 0.05% BSA, 0.02% Tween-20), 10 uL of the mixture of pRb152 and ATP. […] All reactions were run at room temperature in 384-well white flat-bottom OptiPlates (Perkin Elmer, Cat. No. 6007290) for 60 min then were quenched by the addition of 10 μL of 120 mM EDTA. The signals were captured by the addition of 40 μL of the Detection Solution containing the following: Detection Buffer (50 mM HEPES, pH 7.5, 30 mM EDTA, 0.1% Triton x-100, 0.05% BSA), 70 ng/mL anti-phospho-pRb(S780) (Cell Signaling Technology, Cat. No. 9307S), 1 nM Lance Eu-W1024-Rabbit anti-IgG (Perkin Elmer, Cat. No. AD0082), and 20 nM SureLight™ Allophycocyanin-Streptavidin (Perkin Elmer, Cat. No. CR130-100). The resulted solutions were incubated at room temperature for 2 hours before read on the Evision Multilabel Reader (Perkin Elmer, Envision 2102-0010).
On the technique in general: Time-resolved FRET reads energy transfer from a long-lived donor to a nearby acceptor.

One may read the Vdss as the apparent volume that relates the amount in the body to the concentration in plasma or blood. Low values mean little distribution into tissue, high ones wide distribution into tissue. In general, Cmax refers to the maximum level reached in the sampled fluid or tissue. Usually Tmax stands for the time at which the peak concentration occurs. Broadly, the IC50 is the point on the concentration scale where inhibition reaches its midpoint. The low end stands for higher potency, the high end for lower potency. One may read the clearance as the rate of elimination divided by the concentration. One may read the bioavailability as the share of a dose that reaches the circulation, judged against a reference dose that is usually intravenous.

Sequence of CDK1/cyclin B (P06493 whole entry, species assumed): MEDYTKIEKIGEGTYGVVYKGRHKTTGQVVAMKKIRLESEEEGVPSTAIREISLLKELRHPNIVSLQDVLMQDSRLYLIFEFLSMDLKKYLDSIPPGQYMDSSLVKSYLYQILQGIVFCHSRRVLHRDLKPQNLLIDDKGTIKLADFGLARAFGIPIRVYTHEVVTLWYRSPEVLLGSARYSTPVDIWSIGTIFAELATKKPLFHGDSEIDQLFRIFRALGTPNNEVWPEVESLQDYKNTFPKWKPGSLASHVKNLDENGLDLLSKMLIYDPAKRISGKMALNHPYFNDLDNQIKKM
Sequence of CDK1/cyclin B (P14635 whole entry partner, species assumed): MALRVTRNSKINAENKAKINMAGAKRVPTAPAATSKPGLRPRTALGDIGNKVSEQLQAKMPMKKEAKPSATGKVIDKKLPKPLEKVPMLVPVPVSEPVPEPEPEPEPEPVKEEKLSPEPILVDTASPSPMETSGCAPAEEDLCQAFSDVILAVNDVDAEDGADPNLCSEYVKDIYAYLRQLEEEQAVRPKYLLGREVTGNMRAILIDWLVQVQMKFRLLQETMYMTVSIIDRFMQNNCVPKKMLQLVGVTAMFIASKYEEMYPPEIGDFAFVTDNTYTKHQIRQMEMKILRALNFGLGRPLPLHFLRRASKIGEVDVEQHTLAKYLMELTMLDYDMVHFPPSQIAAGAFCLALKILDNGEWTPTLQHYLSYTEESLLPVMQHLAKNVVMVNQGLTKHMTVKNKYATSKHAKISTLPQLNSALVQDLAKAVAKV

Take “7-cyclopentyl-2-(5-piperzin-1-yl-pyridin-2-ylamino)-7H-pyrrolo[2,3-d]pyrimidine-6-carboxylic acid dimethylamide-d5 [Example 1]”: in series [1] (1 mg/kg iv), the “VDss higher than VDss of Comparator A” value is “approximately 1.6 fold”. Moreover, in series [1] (IV 1 mg/kg, n=2, mean), the CL is given as 37 mL/min/kg, the T½ is 3.2 h and the Vdss is 8.6 L/kg. For the same molecule, the AUC0-7 h in series [1] (IV 1 mg/kg) stood at 0.883 µM·h. Moreover, the “Absolute oral bioavailability higher than Comparator A” value in series [2] (5 mg/kg po) is recorded as 1.8 fold. In series [2] (PO 5 mg/kg vs IV 1 mg/kg), the “F (absolute oral bioavailability)” value turned out to be 55%. For the same molecule, in series [2], the highest concentration (Cmax) amounted to 549 nM, the Tmax is 2 h and the AUC0-7 h is 2.432 µM·h. This molecule displayed a half-inhibitory concentration (IC50) at CDK1/cyclin B ([…] CDK1/cyclin B) above 15 µM.
As to `CN(C)C(=O)c1cc2cnc(Nc3ccc(N4CCNCC4)cn3)nc2n1C1CCCC1` [Comparator A, 7-cyclopentyl-2-(5-piperazin-1-yl-pyridin-2-ylamino)-7H-pyrrolo[2,3-d]pyrimidine-6-carboxylic acid dimethylamide, reference compound], in series [1] (IV 1 mg/kg, n=2, mean), the T½ came out at 2.3 h. The AUC0-7 h in series [1] (IV 1 mg/kg) amounted to 1.028 µM·h. The clearance in series [1] (Sprague Dawley, plasma, IV 1 mg/kg, n=2, mean) amounted to 34 mL/min/kg. The Vd in series [1] (Sprague Dawley, plasma, IV 1 mg/kg, n=2, mean, read-out: Vdss) was 5.4 L/kg. Further, in series [2], the time to peak (Tmax) was 1.5 h and the AUC0-7 h is 1.618 µM·h. In series [2] (Sprague Dawley, plasma, PO 5 mg/kg vs IV 1 mg/kg, read-out: F (absolute oral bioavailability)), the bioavailability came to 31%. Further, the Cmax in series [2] (Sprague Dawley, plasma) is 348 nM.
For `CNC(=O)c1cc2cnc(Nc3ccc(N4CCNCC4)cn3)nc2n1C1CCCC1` [Comparator B, 7-cyclopentyl-2-(5-piperazin-1-yl-pyridin-2-ylamino)-7H-pyrrolo[2,3-d]pyrimidine-6-carboxylic acid methylamide, reference compound], the “AUC0-7 h of mono-methyl metabolite” value in series [1] was 0.156 µM·h. In addition, in series [2], the “AUC0-7 h of mono-methyl metabolite” value worked out at 0.372 µM·h and the “Tmax of mono-methyl metabolite” value came to 4.3 h.
Take `[2H]C([2H])([2H])NC(=O)c1cc2cnc(Nc3ccc(N4CCNCC4)cn3)nc2n1C1CCCC1` [Example 2, 7-cyclopentyl-2-(5-piperzin-1-yl-pyridin-2-ylamino)-7H-pyrrolo[2,3-d]pyrimidine-6-carboxylic acid methylamide-d3]: the IC50 against CDK4/cyclin D1 was 0.132 µM; against CDK1/cyclin B (0.25 nM CDK1/cyclin B) it was above 15 µM. Besides, the “AUC0-7 h of mono-methyl metabolite” value in series [1] was 0.066 µM·h; in series [2] it was 0.128 µM·h. Besides, in series [2], the “Tmax of mono-methyl metabolite” value amounted to 3.3 h.
